Results: US20240368133A1, “Compounds for the Treatment of Pain, in Particular, Neuropathic Pain, and/or Other Diseases or Disorders that are Associated with AT2R and/or AT2R Mediated Signaling” (Confo Therapeutics N.V., priority 2021, published 2024)

Assays:
human AT1R = human AT1R (Homo sapiens (Human), UniProt P30556); assay: Counterscreen radioligand binding assay, displacement of 125I-[Sar1, Ile8]-Angiotensin II, hAT1R WT; settings: for inhibition at 1 µM: read-out: % Displaced radioligand at 1 μM; for inhibition at 10 µM: read-out: % Displaced radioligand at 10 μM; for IC50: HEK-293 cell membranes, read-out: Binding affinity On hAT1R IC50
How it was run: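 Membranes from HEK-293 cells expressing human AT1R were incubated for one hour at 25° C, pH 7.4, with 0.05 nM radiolabelled [Sar1, Ile8]-Ang II and test ligand. Bound radioactivity was collected on PEI-soaked filters, with 10 μM unlabelled [Sar1]-Ang II defining non-specific binding. Results are percent displacement at 1 μM and […], or IC50 from eight-point duplicate curves.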

human AT2R fused to Cb23 = human AT2R fused to Cb23 (Homo sapiens, UniProt P50052); assay: Radioligand binding assay, displacement of 125I-[Sar1, Ile8]-Angiotensin II, hAT2R Cb23; settings: displacement of 125I-[Sar1, Ile8]-Angiotensin II, human AT2R fused to Cb23, HEK-293 cell membrane preparations; read-out: Binding affinity on hAT2R_Cb23 IC50
How it was run: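 Membranes from HEK-293 cells expressing human AT2R fused to Cb23 were incubated with 0.05 nM 125I-[Sar1, Ile8]-Angiotensin II in 100 μL buffer (50 mM Tris, 5 mM MgCl2, 1 mM EDTA, 0.1% BSA, pH 7.4) for one hour at 25° C. Ligands were tested as eight-point dose-response curves in duplicate, with C21 and Angiotensin II as references.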

[1] = 125I-[Sar1, Ile8]-Ang II, compound at 1 μM, semi-quantitative score
[2] = 125I-[Sar1, Ile8]-Ang II, compound at 10 μM, semi-quantitative score

human AT2R fused to Cb23, sequence (P50052 whole entry, looked up, the tested form may be a part): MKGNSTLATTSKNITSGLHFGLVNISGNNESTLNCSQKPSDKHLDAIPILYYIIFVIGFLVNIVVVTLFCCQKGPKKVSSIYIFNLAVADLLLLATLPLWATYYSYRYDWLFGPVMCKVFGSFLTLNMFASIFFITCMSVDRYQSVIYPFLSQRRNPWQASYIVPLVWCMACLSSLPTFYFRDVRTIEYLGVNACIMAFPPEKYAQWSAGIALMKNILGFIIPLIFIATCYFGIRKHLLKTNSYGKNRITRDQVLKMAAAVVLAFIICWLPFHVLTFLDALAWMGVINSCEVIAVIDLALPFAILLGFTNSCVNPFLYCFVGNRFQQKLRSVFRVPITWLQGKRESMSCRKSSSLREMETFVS
human AT1R, sequence (P30556 whole entry): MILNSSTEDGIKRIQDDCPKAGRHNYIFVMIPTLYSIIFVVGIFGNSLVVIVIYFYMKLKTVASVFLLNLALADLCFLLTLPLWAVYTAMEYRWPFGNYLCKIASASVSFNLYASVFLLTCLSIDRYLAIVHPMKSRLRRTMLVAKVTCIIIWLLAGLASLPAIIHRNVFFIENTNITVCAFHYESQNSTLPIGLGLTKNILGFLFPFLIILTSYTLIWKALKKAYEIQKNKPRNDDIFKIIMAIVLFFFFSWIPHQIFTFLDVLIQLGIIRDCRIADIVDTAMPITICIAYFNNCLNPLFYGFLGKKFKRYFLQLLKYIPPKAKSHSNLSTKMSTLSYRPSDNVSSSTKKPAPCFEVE

Compound | inhibition at 1 µM (human AT1R; [1]) | inhibition at 10 µM (human AT1R; [2]) | IC50 (human AT2R fused to Cb23) | IC50 (human AT1R) | % Displaced radioligand at 1 μM (human AT1R; [1]) | % Displaced radioligand at 10 μM (human AT1R; [2])
CC(C)Cc1ccc(-c2nn[nH]n2)c(N2CCN(Cc3cc(=O)n4ccccc4n3)CC2)c1 [Compound A-76, 2-[[4-[5-isobutyl-2-(2H-tetrazol-5-yl)-phenyl]piperazin-1-yl]methyl]pyrido-[1,2-a]pyrimidin-4-one] | < 30% | < 30% | 5570 nM |  |  | 
CC(C)c1ccc(-c2nn[nH]n2)c(N2CCN(Cc3nc4ccccc4s3)CC2)c1 [Compound A-46] | < 30% | < 30% | 1790 nM |  |  | 
CCCc1ccc(-c2nn[nH]n2)c(N2CCN(Cc3nc4ccccc4n3C)CC2)c1 [Compound A-19, 1-methyl-2-[[4-[5-propyl-2-(2H-tetrazol-5-yl)phen-yl]piperazin-1-yl]-methyl]benzimid-azole] | < 30% | < 30% | 1170 nM | 47400 nM |  | 
Cc1cnc(CN2CCN(c3cc(CC(C)C)ccc3-c3nn[nH]n3)CC2)s1 [Compound A-106, 2-[[4-[5-isobutyl-2-(2H-tetrazol-5-yl)phenyl]piperazin-1-yl]methyl]-5-methyl-thiazole] | < 30% | < 30% | 35.5 nM |  |  | 
CCS(=O)(=O)NC(=O)c1ccc(OC(C)C)cc1N1CCN(Cc2nc3ccccc3s2)CC1 [Compound A-40, 2-[4-(1,3-benzothiazol-2-ylmethyl)piperazin-1-yl]-N-ethylsulfonyl-4-isopropoxy-benzamide] | < 30% | < 30% | 5870 nM | 36600 nM |  | 
c1ccc2sc(CN3CCN(c4cc(C5CC5)cnc4-c4nn[nH]n4)CC3)nc2c1 [Compound A-143, 2-[[4-[5-cycloprop-yl-2-(2H-tetrazol-5-yl)-3-pyridyl]piper-azin-1-yl]methyl]-1,3-benzothiazole] | < 30% | < 30% | 5460 nM |  |  | 
c1ccc2sc(CN3CCN(c4cc(NC5CCCC5)ccc4-c4nn[nH]n4)CC3)nc2c1 [Compound A-64, 3-[4-(1,3-benzothi-azol-2-ylmethyl)-piperazin-1-yl]-N-cyclopentyl-4-(2H-tetrazol-5-yl)aniline] | < 30% | < 30% | 1560 nM | 39700 nM |  | 
CC(C)Cc1ccc(-c2nn[nH]n2)c(N2CCN(Cc3nc4ccccc4n(C)c3=O)CC2)c1 [Compound A-79, 3-[[4-[5-isobutyl-2-(2H-tetrazol-5-yl)-phenyl]piperazin-1-yl]methyl]-1-methyl-quinoxalin-2-one] | < 30% | < 30% | 4720 nM |  |  | 
CCOC(=O)NS(=O)(=O)c1ccc(C(F)(F)F)cc1N1CCN(Cc2nc3ccccc3n2C)CC1 [Compound A-08, ethyl N-[2-[4-[(1-methylbenzimidazol-2-yl)methyl]piperazin-1-yl]-4-(trifluoromethyl)phenyl]sulfonylcarbamate] | < 30% | < 30% | 6820 nM | 92100 nM |  | 
CCS(=O)(=O)NC(=O)c1ccc(CC(C)C)cc1N1CCN(Cc2nc3ccccc3s2)CC1 [Compound A-36, 2-[4-(1,3-benzo-thiazol-2-ylmethyl)-piperazin-1-yl]-N-ethylsulfonyl-4-isobutyl-benzamide] | < 30% | < 30% | 1420 nM |  |  | 
CC(C)Cc1ccc(-c2nn[nH]n2)c(N2CCN(Cc3ccc(C(F)(F)F)cn3)CC2)c1 [Compound A-85, 1-[5-isobutyl-2-(2H-tetrazol-5-yl)-phenyl]-4-[[5-(trifluoromethyl)-2-pyridyl]methyl]-piperazine] | < 30% | < 30% | 2030 nM | 45000 nM |  | 
CC(C)Oc1cc(N2CCN(Cc3cccnn3)CC2)c(-c2nn[nH]n2)cc1C1CC1 [Compound A-160, 3-[[4-[4-cycloprop-yl-5-isopropoxy-2-(2H-tetrazol-5-yl)-phenyl]piperazin-1-yl]methyl]pyrid-azine] | < 30% | < 30% | 4940 nM |  |  | 
Fc1cc(C2CC2)cc(N2CCN(Cc3nc4ccccc4s3)CC2)c1-c1nn[nH]n1 [Compound A-125, 2-[[4-[5-cycloprop-yl-3-fluoro-2-(2H-tetrazol-5-yl)phen-yl]piperazin-1-yl]-methyl]-1,3-benzo-thiazole] | < 30% | < 30% | 389 nM |  |  | 

Next, values leading:

inhibition at 1 µM (human AT1R; [1]) | inhibition at 10 µM (human AT1R; [2]) | IC50 (human AT2R fused to Cb23) | IC50 (human AT1R) | % Displaced radioligand at 1 μM (human AT1R; [1]) | % Displaced radioligand at 10 μM (human AT1R; [2]) | Compound
< 30% | < 30% | 247 nM |  |  |  | CC(C)Cc1cc(F)c(-c2nn[nH]n2)c(N2CCN(C(=O)c3ccccn3)[C@@H](C)C2)c1 [Compound A-216, [(2S)-4-[3-fluoro-5-isobutyl-2-(2H-tetrazol-5-yl)phen-yl]-2-methyl-piperazin-1-yl]-(2-pyridyl)methanone]
< 30% | < 30% | 203 nM |  |  |  | Cc1cnc(CN2CCN(c3cc(CC(C)C)cc(F)c3-c3nn[nH]n3)CC2)c(C)c1 [Compound A-197, 1-[(3,5-dimethyl-2-pyridyl)methyl]-4-[3-fluoro-5-isobutyl-2-(2H-tetrazol-5-yl)phenyl]piperazine]
 |  | 54.1 nM |  | * (* <30%) | * (* <30%) | Cc1cnc(C(C)N2CCN(c3cc(CC(C)C)cc(F)c3-c3nn[nH]n3)CC2)s1 (stereo not drawn) [Compound A-225, 2-[1-[4-[3-fluoro-5-isobutyl-2-(2H-tetrazol-5-yl)phen-yl]piperazin-1-yl]-ethyl]-5-methyl-thiazole]
< 30% | < 30% | 37.2 nM |  |  |  | Cc1cnc(C(C)N2CCN(c3cc(CC(C)C)cc(F)c3-c3nn[nH]n3)C[C@@H]2C)s1 (stereo partly drawn) [Compound A-226, 2-[1-[(2S)-4-[3-fluoro-5-isobutyl-2-(2H-tetrazol-5-yl)phenyl]-2-methyl-piperazin-1-yl]ethyl]-5-methyl-thiazole]
< 30% | < 30% | 18.6 nM |  |  |  | CC(C)Cc1cc(F)c(-c2nn[nH]n2)c(N2CCN(Cc3cccnn3)C(C)(C)C2)c1 [Compound A-182, 3-[[4-[3-fluoro-5-isobutyl-2-(2H-tetrazol-5-yl)phenyl]-2,2-dimethyl-piperazin-1-yl]methyl]pyridazine]
< 30% | < 30% | 13.9 nM |  |  |  | CC(C)Cc1cc(F)c(-c2nn[nH]n2)c(N2CCN(Cc3cccnn3)C(C)C2C)c1 (stereo not drawn) [Compound A-188, 3-[[4-[3-fluoro-5-isobutyl-2-(2H-tetrazol-5-yl)phen-yl]-2,3-dimethyl-piperazin-1-yl]-methyl]pyridazine]
< 30% | < 30% | 155 nM |  |  |  | Cc1cccnc1CN1CCN(c2cc(CC(C)C)cc(F)c2-c2nn[nH]n2)CC1 [Compound A-203, 1-[3-fluoro-5-isobutyl-2-(2H-tetrazol-5-yl)phen-yl]-4-[(3-methyl-2-pyridyl)methyl]-piperazine]
< 30% | < 30% | 1210 nM |  |  |  | COc1cnc(CN2CCN(c3cc(CC(C)C)cc(F)c3-c3nn[nH]n3)CC2)cc1OC [Compound A-207, 1-[(4,5-dimethoxy-2-pyridyl)methyl]-4-[3-fluoro-5-isobutyl-2-(2H-tetrazol-5-yl)phenyl]piperazine]
< 30% | < 30% | 1060 nM |  |  |  | COc1c(C)cnc(CN2CCN(c3cc(CC(C)C)cc(F)c3-c3nn[nH]n3)CC2)c1C [Compound A-200, 1-[3-fluoro-5-isobutyl-2-(2H-tetrazol-5-yl)phen-yl]-4-[(4-methoxy-3,5-dimethyl-2-pyridyl)methyl]-piperazine]
< 30% | < 30% | 1460 nM |  |  |  | CC(C)Oc1cc(C2CC2)c(-c2nn[nH]n2)c(N2CCN(Cc3cccnn3)CC2)c1 [Compound A-161, 3-[[4-[3-cycloprop-yl-5-isopropoxy-2-(2H-tetrazol-5-yl)-phenyl]piperazin-1-yl]methyl]pyrid-azine]
< 30% | < 30% | 1290 nM |  |  |  | CC(C)Cc1cc(F)c(-c2nn[nH]n2)c(N2CCN(Cc3ncc(F)cc3F)CC2)c1 [Compound A-211, 1-[(3,5-difluoro-2-pyridyl)methyl]-4-[3-fluoro-5-isobutyl-2-(2H-tetrazol-5-yl)phenyl]piperazine]
< 30% | < 30% | 1230 nM |  |  |  | CC(C)Cc1ccc(-c2nn[nH]n2)c(N2CCCN(Cc3cccnn3)CC2)c1 [Compound A-230, 1-[5-isobutyl-2-(2H-tetrazol-5-yl)-phenyl]-4-(pyrid-azin-3-ylmethyl)-1,4-diazepane]
30 to 50% | > 50% | 3680 nM | 6740 nM |  |  | CC(C)Cc1cc(F)c(-c2nn[nH]n2)c(N2CCN(Cc3ccc(C#N)cn3)CC2)c1 [Compound A-209, 6-[[4-[3-fluoro-5-isobutyl-2-(2H-tetrazol-5-yl)phen-yl]piperazin-1-yl]-methyl]pyridine-3-carbonitrile]
